ChEMBL document CHEMBL3872220, “Amphiphilic xanthones as a potent chemical entity of anti-mycobacterial agents with membrane-targeting properties” (Eur J Med Chem, 2016)

What was measured:
Assay type in all cases: functional, Mycobacterium tuberculosis variant bovis BCG
[1] = system: Mycobacterium tuberculosis variant bovis; assay: Antimycobacterial activity against Mycobacterium bovis BCG ATCC 35734 assessed as ATP leakage by measuring extracellular ATP at 4 times MIC measured at 1 hr post dose by luciferase reporter gene assay
[2] = system: Mycobacterium tuberculosis variant bovis; assay: Antimycobacterial activity against Mycobacterium bovis BCG ATCC 35734 assessed as ATP leakage by measuring intracellular ATP at 2 times MIC measured at 24 hrs post dose by luciferase reporter gene assay
[3] = system: Mycobacterium tuberculosis variant bovis; assay: Antimycobacterial activity against Mycobacterium bovis BCG ATCC 35734 assessed as ATP leakage by measuring intracellular ATP at 4 times MIC measured immediatey after addition of compounds by luciferase reporter gene assay
[4] = system: Mycobacterium tuberculosis variant bovis; assay: Antimycobacterial activity against Mycobacterium bovis BCG ATCC 35734 assessed as ATP leakage by measuring extracellular ATP at 4 times MIC measured at 3 hrs post dose by luciferase reporter gene assay
[5] = system: Mycobacterium tuberculosis variant bovis; assay: Antimycobacterial activity against Mycobacterium bovis BCG ATCC 35734 assessed as ATP leakage by measuring extracellular ATP at 0.5 times MIC measured at 6 hrs post dose by luciferase reporter gene assay
[6] = system: Mycobacterium tuberculosis variant bovis; assay: Antimycobacterial activity against Mycobacterium bovis BCG ATCC 35734 assessed as ATP leakage by measuring intracellular ATP at 4 times MIC measured at 24 hrs post dose by luciferase reporter gene assay
[7] = system: Mycobacterium tuberculosis variant bovis; assay: Antimycobacterial activity against Mycobacterium bovis BCG ATCC 35734 assessed as ATP leakage by measuring extracellular ATP at 1 MIC measured at 24 hrs post dose by luciferase reporter gene assay
[8] = system: Mycobacterium tuberculosis variant bovis; assay: Antimycobacterial activity against Mycobacterium bovis BCG ATCC 35734 assessed as ATP leakage by measuring intracellular ATP at 0.5 times MIC measured at 6 hrs post dose by luciferase reporter gene assay
[9] = system: Mycobacterium tuberculosis variant bovis; assay: Antimycobacterial activity against Mycobacterium bovis BCG ATCC 35734 assessed as ATP leakage by measuring intracellular ATP at 0.5 times MIC measured at 3 hrs post dose by luciferase reporter gene assay
[10] = system: Mycobacterium tuberculosis variant bovis; assay: Antimycobacterial activity against Mycobacterium bovis BCG ATCC 35734 assessed as ATP leakage by measuring extracellular ATP at 4 times MIC measured at 6 hrs post dose by luciferase reporter gene assay
[11] = system: Mycobacterium tuberculosis variant bovis; assay: Antimycobacterial activity against Mycobacterium bovis BCG ATCC 35734 assessed as ATP leakage by measuring extracellular ATP at 2 times MIC measured at 9 hrs post dose by luciferase reporter gene assay
[12] = system: Mycobacterium tuberculosis variant bovis; assay: Antimycobacterial activity against Mycobacterium bovis BCG ATCC 35734 assessed as ATP leakage by measuring intracellular ATP at 1 MIC measured at 6 hrs post dose by luciferase reporter gene assay
[13] = system: Mycobacterium tuberculosis variant bovis; assay: Antimycobacterial activity against Mycobacterium bovis BCG ATCC 35734 assessed as ATP leakage by measuring intracellular ATP at 0.5 times MIC measured at 24 hrs post dose by luciferase reporter gene assay
[14] = system: Mycobacterium tuberculosis variant bovis; assay: Antimycobacterial activity against Mycobacterium bovis BCG ATCC 35734 assessed as ATP leakage by measuring intracellular ATP at 0.5 times MIC measured immediatey after addition of compounds by luciferase reporter gene assay
[15] = system: Mycobacterium tuberculosis variant bovis; assay: Antimycobacterial activity against Mycobacterium bovis BCG ATCC 35734 assessed as ATP leakage by measuring intracellular ATP at 2 times MIC measured at 1 hr post dose by luciferase reporter gene assay
[16] = system: Mycobacterium tuberculosis variant bovis; assay: Antimycobacterial activity against Mycobacterium bovis BCG ATCC 35734 assessed as ATP leakage by measuring extracellular ATP at 2 times MIC measured at 1 hr post dose by luciferase reporter gene assay
[17] = system: Mycobacterium tuberculosis variant bovis; assay: Antimycobacterial activity against Mycobacterium bovis BCG ATCC 35734 assessed as ATP leakage by measuring intracellular ATP at 1 MIC measured at 3 hrs post dose by luciferase reporter gene assay
[18] = system: Mycobacterium tuberculosis variant bovis; assay: Antimycobacterial activity against Mycobacterium bovis BCG ATCC 35734 assessed as ATP leakage by measuring intracellular ATP at 2 times MIC measured at 9 hrs post dose by luciferase reporter gene assay
[19] = system: Mycobacterium tuberculosis variant bovis; assay: Antimycobacterial activity against Mycobacterium bovis BCG ATCC 35734 assessed as ATP leakage by measuring extracellular ATP at 1 MIC measured at 6 hrs post dose by luciferase reporter gene assay
[20] = system: Mycobacterium tuberculosis variant bovis; assay: Antimycobacterial activity against Mycobacterium bovis BCG ATCC 35734 assessed as ATP leakage by measuring intracellular ATP at 0.5 times MIC measured at 1 hr post dose by luciferase reporter gene assay
[21] = system: Mycobacterium tuberculosis variant bovis; assay: Antimycobacterial activity against Mycobacterium bovis BCG ATCC 35734 assessed as ATP leakage by measuring intracellular ATP at 4 times MIC measured at 9 hrs post dose by luciferase reporter gene assay
[22] = system: Mycobacterium tuberculosis variant bovis; assay: Antimycobacterial activity against Mycobacterium bovis BCG ATCC 35734 assessed as ATP leakage by measuring intracellular ATP at 1 MIC measured at 24 hrs post dose by luciferase reporter gene assay
[23] = system: Mycobacterium tuberculosis variant bovis; assay: Antimycobacterial activity against Mycobacterium bovis BCG ATCC 35734 assessed as ATP leakage by measuring extracellular ATP at 1 MIC measured at 9 hrs post dose by luciferase reporter gene assay
[24] = system: Mycobacterium tuberculosis variant bovis; assay: Antimycobacterial activity against Mycobacterium bovis BCG ATCC 35734 assessed as ATP leakage by measuring extracellular ATP at 4 times MIC measured at 24 hrs post dose by luciferase reporter gene assay
[25] = system: Mycobacterium tuberculosis variant bovis; assay: Antimycobacterial activity against Mycobacterium bovis BCG ATCC 35734 assessed as ATP leakage by measuring intracellular ATP at 1 MIC measured at 9 hrs post dose by luciferase reporter gene assay
[26] = system: Mycobacterium tuberculosis variant bovis; assay: Antimycobacterial activity against Mycobacterium bovis BCG ATCC 35734 assessed as ATP leakage by measuring extracellular ATP at 2 times MIC measured at 6 hrs post dose by luciferase reporter gene assay
[27] = system: Mycobacterium tuberculosis variant bovis; assay: Antimycobacterial activity against Mycobacterium bovis BCG ATCC 35734 assessed as ATP leakage by measuring intracellular ATP at 2 times MIC measured immediatey after addition of compounds by luciferase reporter gene assay
[28] = system: Mycobacterium tuberculosis variant bovis; assay: Induction of membrane integrity impairment in Mycobacterium bovis BCG ATCC 35734 assessed as pH shift at 60 uM measured after 3 hrs by CMFDA dye based fluorescence spectroscopic method relative to control
[29] = system: Mycobacterium tuberculosis variant bovis; assay: Antimycobacterial activity against Mycobacterium bovis BCG ATCC 35734 assessed as ATP leakage by measuring extracellular ATP at 1 MIC measured at 3 hrs post dose by luciferase reporter gene assay
[30] = system: Mycobacterium tuberculosis variant bovis; assay: Antimycobacterial activity against Mycobacterium bovis BCG ATCC 35734 assessed as ATP leakage by measuring intracellular ATP at 4 times MIC measured at 1 hr post dose by luciferase reporter gene assay
[31] = system: Mycobacterium tuberculosis variant bovis; assay: Antimycobacterial activity against Mycobacterium bovis BCG ATCC 35734 assessed as ATP leakage by measuring intracellular ATP at 2 times MIC measured at 3 hrs post dose by luciferase reporter gene assay
[32] = system: Mycobacterium tuberculosis variant bovis; assay: Antimycobacterial activity against Mycobacterium bovis BCG ATCC 35734 assessed as ATP leakage by measuring extracellular ATP at 0.5 times MIC measured at 9 hrs post dose by luciferase reporter gene assay

CCCN(CCC)CCCCOc1cc2oc3cc(OCCCCN(CCC)CCC)c(OC)c(CC=C(C)C)c3c(=O)c2c(O)c1CC=C(C)C
Activity [1]: 16.8% | Activity [2]: 29.5% | Activity [3]: 90.6% | Activity [4]: 42.1% | Activity [5]: 28% | Activity [6]: 14.8% | Activity [7]: 37.5% | Activity [8]: 72% | Activity [9]: 79.9% | Activity [10]: 69.7% | Activity [11]: 75.3% | Activity [12]: 69.6% | Activity [13]: 84.4% | Activity [14]: 100% | Activity [15]: 89.9% | Activity [16]: 10.1% | Activity [17]: 75.8% | Activity [18]: 24.7% | Activity [19]: 30.4% | Activity [20]: 74.9% | Activity [21]: 16% | Activity [22]: 62.5% | Activity [23]: 48.5% | Activity [24]: 85.2% | Activity [25]: 51.5% | Activity [26]: 63.2% | Activity [27]: 97.8% | Activity [28]: 61.6% | Activity [29]: 24.2% | Activity [30]: 83.2% | Activity [31]: 55.8% | Activity [32]: 25.4%

COc1c(OCCCCN2CCOCC2)cc2oc3cc(OCCCCN4CCOCC4)c(CC=C(C)C)c(O)c3c(=O)c2c1CC=C(C)C
Activity [1]: 25.4% | Activity [2]: 49.8% | Activity [3]: 85.7% | Activity [4]: 33.4% | Activity [5]: 8.6% | Activity [6]: 31.5% | Activity [7]: 4.5% | Activity [8]: 91.4% | Activity [9]: 91.4% | Activity [10]: 62.8% | Activity [11]: 33.1% | Activity [12]: 85.6% | Activity [13]: 95.2% | Activity [14]: 100% | Activity [15]: 83.3% | Activity [16]: 16.7% | Activity [17]: 92.3% | Activity [18]: 66.9% | Activity [19]: 14.4% | Activity [20]: 79.8% | Activity [21]: 41.6% | Activity [22]: 95.5% | Activity [23]: 13.5% | Activity [24]: 68.5% | Activity [25]: 86.5% | Activity [26]: 27.4% | Activity [27]: 91.9% | Activity [28]: 30% | Activity [29]: 7.7% | Activity [30]: 74.6% | Activity [31]: 80% | Activity [32]: 7.3%

CCN(CC)CCCCOc1cc2oc3cc(OCCCCN(CC)CC)c(OC)c(CC=C(C)C)c3c(=O)c2c(O)c1CC=C(C)C
Activity [1]: 66% | Activity [2]: 5.9% | Activity [3]: 89.5% | Activity [4]: 89.6% | Activity [5]: 22.9% | Activity [6]: 6.8% | Activity [7]: 86.4% | Activity [8]: 77.1% | Activity [9]: 72.6% | Activity [10]: 93.3% | Activity [11]: 92.8% | Activity [12]: 29.3% | Activity [13]: 65.3% | Activity [14]: 100% | Activity [15]: 57.6% | Activity [16]: 42.4% | Activity [17]: 33.9% | Activity [18]: 7.2% | Activity [19]: 70.7% | Activity [20]: 79.2% | Activity [21]: 5.5% | Activity [22]: 13.6% | Activity [23]: 85.3% | Activity [24]: 93.2% | Activity [25]: 14.7% | Activity [26]: 91.9% | Activity [27]: 96.4% | Activity [28]: 68.7% | Activity [29]: 66.1% | Activity [30]: 34% | Activity [31]: 16.4% | Activity [32]: 47.2%
